# Data as given in paper PMC6032158, “Structure–Activity Relationship of Piplartine and Synthetic Analogues against Schistosoma mansoni and Cytotoxicity to Mammalian Cells” (International Journal of Molecular Sciences, 2018).
# “Also recorded” adds a separate entry of the source.
# What was measured:
# [1] = tested on: murine fibroblast (NIH-3T3) cells; assay: MTT cytotoxicity assay in murine fibroblasts; format: cell-based
# Protocol: Next, the medium was removed and various concentrations (25–800 µg/mL) of samples reconstituted in 3% DMSO were applied. DMSO (3%) was used as a control. The plates were incubated for 24 h. Next, 15 µL of MTT solution (5 mg/mL in phosphate buffer) was added to each well and the plates were incubated for 2 h. Medium was discarded and 100 µL of DMSO was added to each well. Absorbance was determined using a spectrophotometer with a microplate reader at 595 nm (Molecular Devices Corporation, Sunnyvale, CA, USA).
# [2] = tested on: 49-day-old S. mansoni adult worms; assay: In vitro experiments with adult worms of S. mansoni (mortality, motor activity); format: cell-based, Schistosoma mansoni; settings: for Dead Worms (%) F / Motor Activity Reduction (%) Significant F / Motor Activity Reduction (%) Slight F: female worms; for Dead Worms (%) M / Motor Activity Reduction (%) Significant M / Motor Activity Reduction (%) Slight M: male worms
# Protocol: The Belo Horizonte (BH) strain of S. mansoni was maintained in Biomphalaria glabrata snails and Mesocricetus auratus hamsters at the Adolfo Lutz Institute (São Paulo, Brazil) according to standard procedures. Detailed methods for the infection of molluscs and hamsters, as well as for the recovery of parasites, were as described previously. Briefly, the intermediate host snails were exposed to light for approximately 3 h and cercariae of S. mansoni were subsequently harvested. […] All animals were handled in strict accordance with good animal practice as defined by the Animal Use Ethics Committee. The preparations and culture of schistosomes was performed as previously described. Briefly, hamsters were killed 49 days after infection for the recovery of adult schistosomes. Next, fresh adult worm pairs (male and female) were washed and placed in a 24-well culture plate (TPP, St. […] Adult schistosomes were maintained continuously in medium (with or without drugs) for 96 h as described below. In vitro assays in S. mansoni adults were performed with mated males and females. The worm pairs obtained from the infusion hamsters were washed twice with RPMI 1640 medium containing 200 U/mL penicillin, 200 μg/mL streptomycin and 2 μg/mL amphotericin B (Vitrocell, Campinas, Brazil). The mated parasites were then transferred into 24-well cell culture plates (TPP, St. […] Cultures of adult worms were monitored by microscopy or magnifying glass. The effect of the drug was assessed with emphasis on changes in worm motor activity and death of worms as previously described.
# [3] = tested on: mouse BALB/cN macrophage (J774A.1) cell line; assay: Cell viability by flow cytometry in macrophages; settings: 24 h, 25, 100 and 400 µg/mL, vs DMEM control
structure (smiles),measurement,setting,value
COc1cc(/C=C/C(=O)N2CCCC2)cc(OC)c1OC [Compound 1G],effect on NIH-3T3 cell viability (in words),"[1]; MTT, 24 h exposure, 25 to 800 µg/mL","considerable reduction in cell viability at concentrations of 400 and 800 μg/mL; also recorded: showed toxicity at 200, 400 and 800 μg/mL"
same,Emax at 800 µg/mL,"[1]; Mus musculus, NIH3T3, 24 h, decrease in cell viability at the maximum concentration tested (800 μg/mL), NIH-3T3, 24 h",95.69 ± 0.79%
same,Dead Worms (%) F,"[2]; 5 µM, 24 h",0%
same,Motor Activity Reduction (%) Significant F,"[2]; 5 µM, 24 h",0%
same,Motor Activity Reduction (%) Slight F,"[2]; 5 µM, 24 h",0%
same,Dead Worms (%) M,"[2]; 5 µM, 24 h",0%
same,Motor Activity Reduction (%) Significant M,"[2]; 5 µM, 24 h",0%
same,Motor Activity Reduction (%) Slight M,"[2]; 5 µM, 24 h",0%
same,Dead Worms (%) F,"[2]; 5 µM, 48 h",0%
same,Motor Activity Reduction (%) Significant F,"[2]; 5 µM, 48 h",0%
same,Motor Activity Reduction (%) Slight F,"[2]; 5 µM, 48 h",0%
same,Dead Worms (%) M,"[2]; 5 µM, 48 h",0%
same,Motor Activity Reduction (%) Significant M,"[2]; 5 µM, 48 h",0%
same,Motor Activity Reduction (%) Slight M,"[2]; 5 µM, 48 h",0%
same,Dead Worms (%) F,"[2]; 5 µM, 72 h",0%
same,Motor Activity Reduction (%) Significant F,"[2]; 5 µM, 72 h",0%
same,Motor Activity Reduction (%) Slight F,"[2]; 5 µM, 72 h",0%
same,Dead Worms (%) M,"[2]; 5 µM, 72 h",0%
same,Motor Activity Reduction (%) Significant M,"[2]; 5 µM, 72 h",0%
same,Motor Activity Reduction (%) Slight M,"[2]; 5 µM, 72 h",0%
same,Dead Worms (%) F,"[2]; 5 µM, 96 h",0%
same,Motor Activity Reduction (%) Significant F,"[2]; 5 µM, 96 h",0%
same,Motor Activity Reduction (%) Slight F,"[2]; 5 µM, 96 h",0%
same,Dead Worms (%) M,"[2]; 5 µM, 96 h",0%
same,Motor Activity Reduction (%) Significant M,"[2]; 5 µM, 96 h",0%
same,Motor Activity Reduction (%) Slight M,"[2]; 5 µM, 96 h",0%
same,Dead Worms (%) F,"[2]; 10 µM, 24 h",0%
same,Motor Activity Reduction (%) Significant F,"[2]; 10 µM, 24 h",0%
same,Motor Activity Reduction (%) Slight F,"[2]; 10 µM, 24 h",0%
same,Dead Worms (%) M,"[2]; 10 µM, 24 h",0%
same,Motor Activity Reduction (%) Significant M,"[2]; 10 µM, 24 h",0%
same,Motor Activity Reduction (%) Slight M,"[2]; 10 µM, 24 h",0%
same,Dead Worms (%) F,"[2]; 10 µM, 48 h",0%
same,Motor Activity Reduction (%) Significant F,"[2]; 10 µM, 48 h",0%
same,Motor Activity Reduction (%) Slight F,"[2]; 10 µM, 48 h",0%
same,Dead Worms (%) M,"[2]; 10 µM, 48 h",0%
same,Motor Activity Reduction (%) Significant M,"[2]; 10 µM, 48 h",0%
same,Motor Activity Reduction (%) Slight M,"[2]; 10 µM, 48 h",0%
same,Dead Worms (%) F,"[2]; 10 µM, 72 h",0%
same,Motor Activity Reduction (%) Significant F,"[2]; 10 µM, 72 h",0%
same,Motor Activity Reduction (%) Slight F,"[2]; 10 µM, 72 h",0%
same,Dead Worms (%) M,"[2]; 10 µM, 72 h",0%
same,Motor Activity Reduction (%) Significant M,"[2]; 10 µM, 72 h",0%
same,Motor Activity Reduction (%) Slight M,"[2]; 10 µM, 72 h",0%
same,Dead Worms (%) F,"[2]; 10 µM, 96 h",0%
same,Motor Activity Reduction (%) Significant F,"[2]; 10 µM, 96 h",0%
same,Motor Activity Reduction (%) Slight F,"[2]; 10 µM, 96 h",0%
same,Dead Worms (%) M,"[2]; 10 µM, 96 h",0%
same,Motor Activity Reduction (%) Significant M,"[2]; 10 µM, 96 h",0%
same,Motor Activity Reduction (%) Slight M,"[2]; 10 µM, 96 h",0%
same,Dead Worms (%) F,"[2]; 25 µM, 24 h",0%
same,Motor Activity Reduction (%) Significant F,"[2]; 25 µM, 24 h",0%
same,Motor Activity Reduction (%) Slight F,"[2]; 25 µM, 24 h",0%
same,Dead Worms (%) M,"[2]; 25 µM, 24 h",0%
same,Motor Activity Reduction (%) Significant M,"[2]; 25 µM, 24 h",0%
same,Motor Activity Reduction (%) Slight M,"[2]; 25 µM, 24 h",0%
same,Dead Worms (%) F,"[2]; 25 µM, 48 h",0%
same,Motor Activity Reduction (%) Significant F,"[2]; 25 µM, 48 h",0%
same,Motor Activity Reduction (%) Slight F,"[2]; 25 µM, 48 h",0%
same,Dead Worms (%) M,"[2]; 25 µM, 48 h",0%
same,Motor Activity Reduction (%) Significant M,"[2]; 25 µM, 48 h",0%
same,Motor Activity Reduction (%) Slight M,"[2]; 25 µM, 48 h",0%
same,Dead Worms (%) F,"[2]; 25 µM, 72 h",0%
same,Motor Activity Reduction (%) Significant F,"[2]; 25 µM, 72 h",0%
same,Motor Activity Reduction (%) Slight F,"[2]; 25 µM, 72 h",0%
same,Dead Worms (%) M,"[2]; 25 µM, 72 h",0%
same,Motor Activity Reduction (%) Significant M,"[2]; 25 µM, 72 h",0%
same,Motor Activity Reduction (%) Slight M,"[2]; 25 µM, 72 h",0%
same,Dead Worms (%) F,"[2]; 25 µM, 96 h",0%
same,Motor Activity Reduction (%) Significant F,"[2]; 25 µM, 96 h",0%
same,Motor Activity Reduction (%) Slight F,"[2]; 25 µM, 96 h",0%
same,Dead Worms (%) M,"[2]; 25 µM, 96 h",0%
same,Motor Activity Reduction (%) Significant M,"[2]; 25 µM, 96 h",0%
same,Motor Activity Reduction (%) Slight M,"[2]; 25 µM, 96 h",0%
same,Dead Worms (%) F,"[2]; 50 µM, 24 h",0%
same,Motor Activity Reduction (%) Significant F,"[2]; 50 µM, 24 h",0%
same,Motor Activity Reduction (%) Slight F,"[2]; 50 µM, 24 h",0%
same,Dead Worms (%) M,"[2]; 50 µM, 24 h",0%
same,Motor Activity Reduction (%) Significant M,"[2]; 50 µM, 24 h",0%
same,Motor Activity Reduction (%) Slight M,"[2]; 50 µM, 24 h",0%
same,Dead Worms (%) F,"[2]; 50 µM, 48 h",0%
same,Motor Activity Reduction (%) Significant F,"[2]; 50 µM, 48 h",0%
same,Motor Activity Reduction (%) Slight F,"[2]; 50 µM, 48 h",0%
same,Dead Worms (%) M,"[2]; 50 µM, 48 h",0%
same,Motor Activity Reduction (%) Significant M,"[2]; 50 µM, 48 h",0%
same,Motor Activity Reduction (%) Slight M,"[2]; 50 µM, 48 h",0%
same,Dead Worms (%) F,"[2]; 50 µM, 72 h",0%
same,Motor Activity Reduction (%) Significant F,"[2]; 50 µM, 72 h",0%
same,Motor Activity Reduction (%) Slight F,"[2]; 50 µM, 72 h",0%
same,Dead Worms (%) M,"[2]; 50 µM, 72 h",0%
same,Motor Activity Reduction (%) Significant M,"[2]; 50 µM, 72 h",0%
same,Motor Activity Reduction (%) Slight M,"[2]; 50 µM, 72 h",0%
same,Dead Worms (%) F,"[2]; 50 µM, 96 h",0%
same,Motor Activity Reduction (%) Significant F,"[2]; 50 µM, 96 h",0%
same,Motor Activity Reduction (%) Slight F,"[2]; 50 µM, 96 h",0%
same,Dead Worms (%) M,"[2]; 50 µM, 96 h",0%
same,Motor Activity Reduction (%) Significant M,"[2]; 50 µM, 96 h",0%
same,Motor Activity Reduction (%) Slight M,"[2]; 50 µM, 96 h",0%
same,activity against S. mansoni adult worms (in words),"[2]; analogues 50, 25, 10 and 5 μM, piplartine 5 and 10 μM, up to 96 h",did not exhibit antischistosome activity at the concentrations tested
same,effect on J774A.1 cell viability (in words),[3],"significantly altered (p < 0.05) cell viability in comparison with the negative control, but not in a toxic manner"
